Results from patent US9663513B2, “Pyrimidine PDE10 inhibitors” (Merck Sharp & Dohme Corp., priority 2012, dated 2017).
pKi: −log10 of the molar value.

Biological target: human PDE10A2 (Homo sapiens (Human), UniProt Q9Y233)
Test: PDE10 fluorescence polarization (IMAP FP) inhibition assay
Type: biochemical
Details: human PDE10A2 from transfected AD293 cells; FAM-labeled cAMP 50 nM; apparent inhibition constant; read-out: PDE10A Ki
Outline: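 Cytoplasmic lysate of AD293 cells transiently expressing human PDE10A2 (enzyme level giving 20% conversion) incubated with 50 nM FAM-cAMP in pH 7.2 Tris/MgCl2 buffer, 30 min at room temperature. IMAP binding solution added, FP read after ≥1 h; 10-point 3-fold compound titrations fitted to a four-parameter equation.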

Sequence of human PDE10A2 (Q9Y233 267-1055): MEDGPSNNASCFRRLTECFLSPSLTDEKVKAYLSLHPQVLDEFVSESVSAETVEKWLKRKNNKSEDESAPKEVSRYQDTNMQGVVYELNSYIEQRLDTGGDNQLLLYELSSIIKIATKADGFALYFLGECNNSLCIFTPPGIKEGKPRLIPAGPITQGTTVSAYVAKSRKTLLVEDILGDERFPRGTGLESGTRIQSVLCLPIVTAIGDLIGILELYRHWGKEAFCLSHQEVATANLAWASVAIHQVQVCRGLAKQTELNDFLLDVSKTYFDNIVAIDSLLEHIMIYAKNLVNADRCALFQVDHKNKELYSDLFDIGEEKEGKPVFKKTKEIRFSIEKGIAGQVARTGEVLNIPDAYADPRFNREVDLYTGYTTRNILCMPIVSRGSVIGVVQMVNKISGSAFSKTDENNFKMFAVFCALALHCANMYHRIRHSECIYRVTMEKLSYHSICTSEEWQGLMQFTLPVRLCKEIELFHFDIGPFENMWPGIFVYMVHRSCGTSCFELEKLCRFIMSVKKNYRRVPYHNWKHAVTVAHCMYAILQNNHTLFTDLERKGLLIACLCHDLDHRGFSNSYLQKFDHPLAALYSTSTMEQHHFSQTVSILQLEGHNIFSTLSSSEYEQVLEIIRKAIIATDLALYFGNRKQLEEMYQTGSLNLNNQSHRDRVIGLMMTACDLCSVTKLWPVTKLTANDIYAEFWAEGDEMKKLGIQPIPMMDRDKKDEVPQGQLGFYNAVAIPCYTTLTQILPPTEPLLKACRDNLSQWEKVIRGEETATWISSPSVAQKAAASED

Row | SMILES | pKi
1 | COc1ccc([C@H]2C[C@@H]2COc2nc(C)ncc2-c2ccc(C(=O)O)nn2)nc1 [Example 99, 6-(4-(((1S,2S)-2-(5-methoxypyridin-2-yl)cyclopropyl)methoxy)-2-methylpyrimidin-5-yl)pyridazine-3-carboxylic acid] | 8.57
2 | COc1ccc([C@H]2C[C@@H]2COc2nc(C)ncc2-c2ccc(C(C)(C)O)nn2)nc1 [Example 100, 2-(6-(4-(((1S,2S)-2-(5-methoxypyridin-2-yl)cyclopropyl)methoxy)-2-methylpyrimidin-5-yl)pyridazin-3-yl)propan-2-ol] | 8.40
3 | COc1ccc([C@H]2C[C@@H]2COc2nc(C)ncc2-c2ccc(CO)nn2)nc1 [Example 101, (6-(4-(((1S,2S)-2-(5-methoxypyridin-2-yl)cyclopropyl)methoxy)-2-methylpyrimidin-5-yl)pyridazin-3-yl)methanol] | 7.92
4 | CNC(=O)c1ccc(-c2cnc(C)nc2OC[C@H]2C[C@@H]2c2ccc(OC)cn2)cn1 [Example 103, 5-(4-(((1S,2S)-2-(5-methoxypyridin-2-yl)cyclopropyl)methoxy)-2-methylpyrimidin-5-yl)-N-methylpicolinamide] | 8.63
5 | COc1ccc([C@H]2C[C@@H]2COc2nc(C)ncc2-c2ccc(C(=O)NCC(F)(F)F)nc2)nc1 [Example 104, 5-(4-(((1S,2S)-2-(5-methoxypyridin-2-yl)cyclopropyl)methoxy)-2-methylpyrimidin-5-yl)-N-(2,2,2-trifluoroethyl)picolinamide] | 9.17
6 | COc1ccc([C@H]2C[C@@H]2COc2nc(C)ncc2-c2ccc(C(=O)NCCO)nc2)nc1 [Example 106, N-(2-hydroxyethyl)-5-(4-(((1S,2S)-2-(5-methoxypyridin-2-yl)cyclopropyl)methoxy)-2-methylpyrimidin-5-yl)picolinamide] | 9.19
7 | COc1ccc([C@H]2C[C@@H]2COc2nc(C)ncc2-c2ccc(C#N)n2C)nc1 [Example 109, 5-(4-(((1S,2S)-2-(5-methoxypyridin-2-yl)cyclopropyl)methoxy)-2-methylpyrimidin-5-yl)-1-methyl-1H-pyrrole-2-carbonitrile] | 9.03
8 | CCOC(=O)c1cnc(O)cc1-c1cnc(C)nc1OC[C@H]1C[C@@H]1c1ccc(OC)cn1 [Example 110, ethyl 6-hydroxy-4-(4-(((1S,2S)-2-(5-methoxypyridin-2-yl)cyclopropyl)methoxy)-2-methylpyrimidin-5-yl)nicotinate] | 7.38

Continued by rising pKi, values first:

Row | pKi | SMILES
9 | 7.92 | COc1ccc([C@H]2C[C@@H]2COc2nc(C)ncc2-c2cnc(CO)cn2)nc1 [Example 98, (5-(4-(((1S,2S)-2-(5-methoxypyridin-2-yl)cyclopropyl)methoxy)-2-methylpyrimidin-5-yl)pyrazin-2-yl)methanol]
10 | 7.99 | COc1ccc([C@H]2C[C@@H]2COc2nc(C)ncc2-c2ccc(C)nn2)nc1 [Example 102, 3-(4-(((1S,2S)-2-(5-methoxypyridin-2-yl)cyclopropyl)methoxy)-2-methylpyrimidin-5-yl)-6-methylpyridazine]
11 | 8.43 | COc1ccc([C@H]2C[C@@H]2COc2nc(C)ncc2-c2ccnc(N)c2C#N)nc1 [Example 108, 2-amino-4-(4-(((1S,2S)-2 (5-methoxypyridin-2-yl)cyclopropyl)methoxy)-2-methylpyrimidin-5-yl)nicotinonitrile]
12 | 8.85 | COc1ccc([C@H]2C[C@@H]2COc2nc(C)ncc2-c2ccc(C(N)=O)nc2)nc1 [Example 105, 5-(4-(((1S,2S)-2-(5-methoxypyridin-2-yl)cyclopropyl)methoxy)-2-methylpyrimidin-5-yl)picolinamide]
13 | 8.97 | COc1ccc([C@H]2C[C@@H]2COc2nc(C)ncc2-c2ccc(C(=O)NCCO)cc2)nc1 [Example 107, N-(2-hydroxyethyl)-4-(4-(((1S,2S)-2-(5-methoxypyridin-2-yl)cyclopropyl)methoxy)-2-methylpyrimidin-5-yl)benzamide]
